Assay in all cases: DTP human tumour cell line panel, 48 h
Experiment [1] concerns A549.
Experiment [2] relates to RPMI-8226.
For experiment [3], the system named is HCT-116.
The subject of experiment [4] is Hs-578T.
The test system of experiment [5] is SK-MEL-5.
Experiment [6] relates to OVCAR-3.
Experiment [7] relates to SF-539.
Experiment [8] has as its system NCI/ADR-RES.
In experiment [9] the test system is SW-620.
Experiment [10] deals with DU-145.
In experiment [11] the test system is LOX IMVI.
In experiment [12] the test system is RXF 393.
The test system of experiment [13] is MDA-MB-435.
Experiment [14] relates to HL-60.
The subject of experiment [15] is Malme-3M.
For experiment [16], the system named is UO-31.
For experiment [17], the system named is HOP-62.
In experiment [18] the test system is SK-MEL-28.
For experiment [19], the system named is OVCAR-4.
The test system of experiment [20] is HCC 2998.

Experimental findings from ChEMBL document CHEMBL1201862, “PubChem BioAssay data set” (2004) are described below.

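Values below derive from 48-hour exposures of cells grown in 96-well plates, with endpoints linearly interpolated between the two concentrations bracketing the appropriate inhibition level. Here, GI50 denotes the concentration required for 50% inhibition of growth.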 The source made the active and inactive calls. Cut-off read from the data, not from the text of the source: active = GI50 up to about 1.1 µM and inactive = higher.

Consider `CN1C(=O)CC2(C)c3cc(O)ccc3N(C)C12` (stereo not drawn), for which the GI50 (commonly the concentration giving 50% growth inhibition) in experiment [1] is > 68.5 µM (inactive); in [2], 31 µM (inactive); in [3] it was 19.9 µM (inactive); in [4], > 48.9 µM (inactive); in experiment [5], 22.5 µM (inactive); in experiment [6], 19.6 µM (inactive). The GI50 was 64.1 µM (inactive) in experiment [7]; 39.4 µM (inactive) in [8]; 20 µM (inactive) in experiment [9]; > 40.4 µM (inactive) in experiment [10]; 17.1 µM (inactive) in [11]; 29.4 µM (inactive) in [12]. For the same molecule, the GI50 is 13.6 µM (inactive) in experiment [13]; 21.2 µM (inactive) in experiment [14]; 54.5 µM (inactive) in experiment [15]; > 71.8 µM (inactive) in experiment [16]; 41 µM (inactive) in [17]; 50.7 µM (inactive) in [18]. The GI50 in experiment [19] was 5.45 µM (inactive); in [20] it was > 100 µM (inactive).
As to `COc1ccc(CC2C3=C(CCN2C(=O)C2CCC2)CC2(CC3)OCCO2)cc1O` (stereo not drawn), the GI50 in experiment [1] was 40.9 µM (inactive); in [2], 36.6 µM (inactive); in experiment [3] it was 34.6 µM (inactive); in experiment [4] it was 30.6 µM (inactive); in experiment [5] it was 30.3 µM (inactive); in experiment [6], 18 µM (inactive). Moreover, the GI50 in experiment [7] was 27.9 µM (inactive); in [8], 16.3 µM (inactive); in [9] it was 31.3 µM (inactive); in [10], 26.5 µM (inactive); in experiment [11], > 100 µM (inactive); in [12], 15.7 µM (inactive). Moreover, the GI50 is 6.7 µM (inactive) in [13]; 18.8 µM (inactive) in experiment [14]; 27.9 µM (inactive) in [15]; 0.182 µM (active) in experiment [16]; 33.6 µM (inactive) in experiment [17]; 55.2 µM (inactive) in experiment [18]. Besides, the results for the GI50 in experiment [19] and in [20] were 41.4 µM (inactive) and 28.2 µM (inactive), respectively.
As to `CC[C@@]1(O)C(=O)OCc2c1cc1n(c2=O)Cc2cc3cc4c(cc3nc2-1)OCO4`, the GI50 in experiment [1] was 0.00144 µM (active); in experiment [2] it was 0.0281 µM (active); in experiment [3] it was 0.00167 µM (active); in experiment [4], 0.244 µM (active); in experiment [5] it was 0.00169 µM (active); in experiment [6], 0.0551 µM (active). Further, the GI50 in experiment [7] was < 0.001 µM (active); in experiment [8], 0.00175 µM (active); in experiment [9] it was 0.0032 µM (active); in experiment [10] it was < 0.001 µM (active); in experiment [11], 0.00135 µM (active); in experiment [12], 0.00221 µM (active). The GI50 was 0.0149 µM (active) in experiment [13]; 0.00133 µM (active) in experiment [14]; 0.00497 µM (active) in [15]; 0.00116 µM (active) in experiment [16]; < 0.001 µM (active) in experiment [17]; 0.0188 µM (active) in experiment [18]. The GI50 was 0.0507 µM (active) in [19] and 0.0238 µM (active) in [20].
Consider `Cc1c2ccnc(C(=O)NCCN(C)C)c2cc2c3cc(O)ccc3n(C)c12`, for which the GI50 in experiment [1] is 0.0173 µM (active); in experiment [2], 0.0927 µM (active); in experiment [3], 0.0608 µM (active); in experiment [4], 0.204 µM (active); in [5], 0.149 µM (active); in experiment [6], 0.357 µM (active). For the same molecule, the GI50 was 0.0603 µM (active) in experiment [7]; 0.766 µM (active) in [8]; 0.0931 µM (active) in experiment [9]; 0.0649 µM (active) in [10]; 0.11 µM (active) in experiment [11]; 0.29 µM (active) in experiment [12]. The GI50 in experiment [13] is 0.282 µM (active); in [14], < 0.022 µM (active); in [15], 0.295 µM (active); in experiment [16] it was 0.267 µM (active); in experiment [17], 0.0368 µM (active); in [18], 0.328 µM (active). Besides, the GI50 is 0.537 µM (active) in [19] and 0.573 µM (active) in [20].
On to `CCOC(=O)c1cc(C)n(CN(CCO)Cn2nc(C(=O)OCC)cc2C)n1`, for which the GI50 in experiment [1] is 97.3 µM (inactive); in [2] it was 19.9 µM (inactive); in [3], 18.3 µM (inactive); in experiment [4], 97.7 µM (inactive); in [5], 37.2 µM (inactive); in experiment [6], 26 µM (inactive). Besides, the GI50 in experiment [7] is 17.7 µM (inactive); in experiment [8] it was 18.7 µM (inactive); in experiment [9], 28.3 µM (inactive); in experiment [10], 25.5 µM (inactive); in experiment [11], 27.5 µM (inactive); in [12] it was 19.3 µM (inactive). Also, the GI50 in experiment [13] was 39.7 µM (inactive); in experiment [14] it was 34.2 µM (inactive); in [15] it was 27.1 µM (inactive); in experiment [16] it was 21.5 µM (inactive); in experiment [17], 25.9 µM (inactive); in experiment [18] it was 40.7 µM (inactive). Further, the GI50 in experiment [19] is 33.4 µM (inactive); in experiment [20], 11.8 µM (inactive).
For the molecule `CCOC(=O)c1c(-c2ccccc2)nc2c(OC)nccn12`, the GI50 in [1] is > 100 µM (inactive); in experiment [2], > 100 µM (inactive); in experiment [3] it was > 100 µM (inactive); in [4] it was > 100 µM (inactive); in [5], 61.1 µM (inactive); in experiment [6], > 100 µM (inactive). In addition, the GI50 was > 100 µM (inactive) in experiment [7]; > 100 µM (inactive) in [8]; > 100 µM (inactive) in experiment [9]; > 100 µM (inactive) in experiment [10]; > 100 µM (inactive) in experiment [11]; 15.4 µM (inactive) in [12]. The GI50 in experiment [13] is > 100 µM (inactive); in experiment [14], > 100 µM (inactive); in experiment [15], > 100 µM (inactive); in [16], 20.5 µM (inactive); in experiment [17], > 100 µM (inactive); in experiment [18], > 100 µM (inactive). For the same molecule, the GI50 in experiment [19] and in experiment [20] was > 100 µM (inactive) in each case.
In the case of `Clc1ccc2c(NCCCCCCNc3ccnc4cc(Cl)ccc34)ccnc2c1`, the GI50 in experiment [1] was 4.69 µM (inactive); in [2] it was 2.13 µM (inactive); in [3], 1.8 µM (inactive); in [4] it was 3.27 µM (inactive); in experiment [5], 3.34 µM (inactive); in [6], 1.84 µM (inactive). Also, the GI50 in [7] was 1.87 µM (inactive); in experiment [8], 4.56 µM (inactive); in experiment [9] it was 1.63 µM (inactive); in [10], 6.19 µM (inactive); in [11], 1.74 µM (inactive); in experiment [12], 3.01 µM (inactive). Moreover, the GI50 in experiment [13] was 6.04 µM (inactive); in [14] it was 1.98 µM (inactive); in [15], 12.8 µM (inactive); in experiment [16] it was 4.83 µM (inactive); in experiment [17] it was 4.72 µM (inactive); in experiment [18] it was 4.62 µM (inactive). Besides, the GI50 in experiment [19] is 2.54 µM (inactive); in experiment [20] it was 1.67 µM (inactive).
For `O=[N+]([O-])/C=C/c1cc(Cl)c(/C=C/[N+](=O)[O-])cc1Cl`, the GI50 in experiment [1] was 4.63 µM (inactive); in [2] it was 1.25 µM (inactive); in [3], 1.12 µM (active); in experiment [4], 2.91 µM (inactive); in experiment [5] it was 3.53 µM (inactive); in experiment [6] it was 1.97 µM (inactive). Also, the GI50 in experiment [7] was 1.86 µM (inactive); in [8] it was 2.79 µM (inactive); in experiment [9], 1.03 µM (active); in [10], 2.51 µM (inactive); in [11], 1.53 µM (inactive); in experiment [12] it was 1.46 µM (inactive). The GI50 in experiment [13] was 1.82 µM (inactive); in experiment [14], 0.205 µM (active); in experiment [15] it was 1.91 µM (inactive); in experiment [16] it was 1.49 µM (inactive); in experiment [17], 3.77 µM (inactive); in [18], 1.68 µM (inactive). The figures for the GI50 in experiment [19] and in experiment [20] were 1.87 µM (inactive) and 1.53 µM (inactive), respectively.
With `CO/[N+]([O-])=C\C(=O)N/C=C/C(=O)O`, the GI50 in experiment [2] was 79.6 µM (inactive); in experiment [3], > 100 µM (inactive); in [4] it was > 100 µM (inactive); in experiment [5], > 100 µM (inactive); in experiment [6], > 100 µM (inactive); in [7], > 100 µM (inactive). Moreover, the GI50 in [8], in experiment [9], in [10], in experiment [11], in experiment [12] and in experiment [13] was > 100 µM (inactive) each time. The GI50 in experiment [14], in experiment [15], in [16], in experiment [17], in experiment [18] and in experiment [19] was > 100 µM (inactive) throughout. Also, the GI50 in experiment [20] was > 100 µM (inactive).
Regarding `COC1(CC[C@H](C)COC2OC(CO)C(O)C(O)C2O)O[C@H]2C[C@H]3[C@@H]4CC=C5C[C@@H](OC6OC(CO)C(OC7OC(C)C(O)C(O)C7O)C(O)C6OC6OC(C)C(O)C(O)C6O)CC[C@]5(C)[C@H]4CC[C@]3(C)[C@H]2[C@@H]1C` (stereo partly drawn), the GI50 was 1.99 µM (inactive) in [1]; 2.32 µM (inactive) in [2]; 1.9 µM (inactive) in [4]; 4.98 µM (inactive) in [5]; 6.1 µM (inactive) in experiment [6]; 1.96 µM (inactive) in [7]. Moreover, the GI50 was 3.67 µM (inactive) in [8]; 2.67 µM (inactive) in experiment [9]; 2.42 µM (inactive) in experiment [10]; 1.9 µM (inactive) in [11]; 4.57 µM (inactive) in experiment [12]; 1.77 µM (inactive) in [13]. Also, the GI50 was 8.55 µM (inactive) in [14]; 3.45 µM (inactive) in [15]; 2.47 µM (inactive) in [16]; 1.87 µM (inactive) in [17]; 3.77 µM (inactive) in experiment [18]; 3.78 µM (inactive) in experiment [19]. The GI50 in [20] is 6.32 µM (inactive).
